We go through 25 compounds from patent publication US12637425B2, “Compounds and formulations for treating ophthalmic diseases” (Visus Therapeutics, Inc., priority 2020, dated 2026).

This assay addresses T1, Recombinant cryAB(R120G) protein (Homo sapiens, UniProt P02511, R120G).
T1 sequence (P02511 1-175 R120G): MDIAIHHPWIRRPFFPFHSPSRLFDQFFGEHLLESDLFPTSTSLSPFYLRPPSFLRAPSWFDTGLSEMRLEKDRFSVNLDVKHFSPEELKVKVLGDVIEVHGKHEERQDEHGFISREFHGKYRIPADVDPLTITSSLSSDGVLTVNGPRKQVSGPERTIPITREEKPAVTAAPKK
Put plainly: Kinetic turbidity aggregation assay of recombinant cryAB(R120G). Conditions: for inhibition at 25 µM / % Inhibition of Protein Aggregation, 25 μM cmpd: 25 μM compound; for inhibition at 25 µM: read-out: % Inhibition of Protein Aggregation, 25 μM cmpd; for inhibition at 100 µM / % Inhibition of Protein Aggregation, 100 μM cmpd: 100 μM compound; for inhibition at 100 µM: read-out: % Inhibition of Protein Aggregation, 100 μM cmpd; for inhibition at 400 µM: read-out: % Inhibition of Protein Aggregation, 400 μM cmpd; for IC50: inhibition of cryAB(R120G) protein aggregation. Format: biochemical. As to the method: Example A-1: Kinetic Turbidity Aggregation Assay of Recombinant cryAB(R120)
Recombinant cryAB(R120G) protein was diluted to 100 μM in assay buffer (50 mM Tris, 100 mM NaCl, 5 mM DTT, 0.01% Triton X-100, 0.05% PEG-8000). Compounds were dissolved in DMSO at 10 mM then typically diluted to 2.5 mM in DMSO and serially diluted 2-fold as necessary. To a 384-well black microplate in quadruplicate was added 81 μL assay buffer, followed by 15 μL protein solution, and 4 μL compound to give a final concentration of 15 μM cryAB(R120G) protein in 4% DMSO. […] N.D. is not determined.

The mark [1] stands for this setting: 15 μM cryAB(R120G), 42° C., absorbance at 550 nm.
Where [2] appears, read: 400 μM compound, 15 μM cryAB(R120G), 42° C., absorbance at 550 nm.

Molecules are shown by their SMILES.

With `CCn1nc([C@H](CNS(=O)(=O)c2ccc3cc[nH]c3c2)N2CCCC2)c2ccccc21` [Compound 92, (S)-N-(2-(1-ethyl-1H-indazol-3-yl)-2-(pyrrolidin-1-yl)ethyl)-1H-indole-6-sulfonamide], under setting [1], the inhibition (in general, the relative decrease from the control value, in per cent) at 25 µM came to 49% and the inhibition at 100 µM turned out to be 99.3%.
The like results for `C[C@@H]1CCN([C@@H](CNS(=O)(=O)c2ccc3cc[nH]c3c2)c2cn(C)c3ccccc23)C1` [Compound 77, N-((R)-2-(1-methyl-1H-indol-3-yl)-2-((R)-3-methylpyrrolidin-1-yl)ethyl)-1H-indole-6-sulfonamide] were, in that order, 88% and 100%.
In the case of `CN(C)C(CNS(=O)(=O)c1ccc2ccn(C)c2c1)c1cn(C)c2ccccc12` (centres unmarked) [Compound 8, N-(2-(dimethylamino)-2-(1-methyl-1H-indol-3-yl)ethyl)-1-methyl-1H-indole-6-sulfonamide], under setting [1], the inhibition at 25 µM is -37% and the inhibition at 100 µM is -29%. Under setting [2], the inhibition at 400 µM was 74.3%.
As for `CCn1cc(C(CNS(=O)(=O)c2ccc3cc[nH]c3c2)N(C)C)c2ccccc21` (centres unmarked) [Compound 2, N-(2-(dimethylamino)-2-(1-ethyl-1H-indol-3-yl)ethyl)-1H-indole-6-sulfonamide], the IC50 – broadly, the midpoint of a concentration-inhibition curve – was not above 10 µM. Under setting [1], the inhibition at 25 µM is 88% and the inhibition at 100 µM was found to be 99.4%. In addition, the inhibition at 400 µM under setting [2] stood at 95%.
`CCN(CC)C(CNS(=O)(=O)c1ccc2cc[nH]c2c1)c1cn(C)c2ccccc12` (centres unmarked) [Compound 38, N-(2-(diethylamino)-2-(1-methyl-1H-indol-3-yl)ethyl)-1H-indole-6-sulfonamide]: the IC50 lay within 10 to 50 µM. Under setting [1], the inhibition at 25 µM turned out to be 57% and the inhibition at 100 µM worked out at 99.8%.
The matching figures for `CN(CCO)C(CNS(=O)(=O)c1ccc2cc[nH]c2c1)c1cn(C)c2ccccc12` (centres unmarked) [Compound 32, N-(2-((2-hydroxyethyl)(methyl)amino)-2-(1-methyl-1H-indol-3-yl)ethyl)-1H-indole-6-sulfonamide]: 10 to 50 µM, 60% and 98.5%.
Consider `CCn1nc([C@H](CNS(=O)(=O)c2ccc3cc[nH]c3c2)N2CCC2)c2ccccc21` [Compound 95, (S)-N-(2-(azetidin-1-yl)-2-(1-ethyl-1H-indazol-3-yl)ethyl)-1H-indole-6-sulfonamide], for which, under setting [1], the inhibition at 25 µM came out at 14% and the inhibition at 100 µM was 56.2%.
The matching figures for `Cn1cc([C@H](CNS(=O)(=O)c2ccc3cc[nH]c3c2)N2CCCC2)c2cccnc21` [Compound 67, (R)-N-(2-(1-methyl-1H-pyrrolo[2,3-b]pyridin-3-yl)-2-(pyrrolidin-1-yl)ethyl)-1H-indole-6-sulfonamide]: 34% and 73.3%.
As to `CN(C)C(CNS(=O)(=O)c1ccc2cc[nH]c2c1)c1cn(C)c2ccc(F)cc12` (centres unmarked) [Compound 20, N-(2-(dimethylamino)-2-(5-fluoro-1-methyl-1H-indol-3-yl)ethyl)-1H-indole-6-sulfonamide], under setting [1], the inhibition at 25 µM stood at 49% and the inhibition at 100 µM is 99.2%. In addition, the inhibition at 400 µM under setting [2] was 93.4%.
For `O=S(=O)(NC[C@H](c1cnc2ccccn12)N1CCCC1)c1ccc2cc[nH]c2c1` [Compound 78, (R)-N-(2-(imidazo[1,2-a]pyridin-3-yl)-2-(pyrrolidin-1-yl)ethyl)-1H-indole-6-sulfonamide], under setting [1], the inhibition at 25 µM turned out to be 23% and the inhibition at 100 µM was 99.6%.
The like results for `CC(=O)N[C@@H]1CCN(C(CNS(=O)(=O)c2ccc3cc[nH]c3c2)c2cn(C)c3ccccc23)C1` (stereo partly drawn) [Compound 62, N-((3R)-1-(2-(1H-indole-6-sulfonamido)-1-(1-methyl-1H-indol-3-yl)ethyl)pyrrolidin-3-yl)acetamide] were, in that order, -39% and 53.1%.
Take `CN(C)C(CNS(=O)(=O)c1ccc2cc[nH]c2c1)c1cn(CC#N)c2ccccc12` (centres unmarked) [Compound 71, N-(2-(1-(cyanomethyl)-1H-indol-3-yl)-2-(dimethylamino)ethyl)-1H-indole-6-sulfonamide]: under setting [1], the inhibition at 25 µM turned out to be 63% and the inhibition at 100 µM was determined as 99.3%.
Regarding `CCn1nc(C(CNS(=O)(=O)c2ccc3cc[nH]c3c2)N(C)C)c2ccccc21` (centres unmarked) [Compound 72, N-(2-(dimethylamino)-2-(1-ethyl-1H-indazol-3-yl)ethyl)-1H-indole-6-sulfonamide], the IC50 lay in the range of 10 to 50 µM. In addition, under setting [1], the inhibition at 25 µM stood at 62% and the inhibition at 100 µM was 98.2%.
The matching figures for `C[C@@H]1CCCN1[C@@H](CNS(=O)(=O)c1ccc2cc[nH]c2c1)c1cn(C)c2ccccc12` [Compound 55, N-((R)-2-(1-methyl-1H-indol-3-yl)-2-((R)-2-methylpyrrolidin-1-yl)ethyl)-1H-indole-6-sulfonamide]: 50 to 100 µM, 33% and 99.6%.
Take `CC(C)n1cc(C(CNS(=O)(=O)c2ccc3cc[nH]c3c2)N(C)C)c2ccccc21` (centres unmarked) [Compound 1, N-(2-(dimethylamino)-2-(1-isopropyl-1H-indol-3-yl)ethyl)-1H-indole-6-sulfonamide]: the IC50 is not above 10 µM. For the same compound, under setting [1], the “% Inhibition of Protein Aggregation, 25 μM cmpd” value was 84% and the “% Inhibition of Protein Aggregation, 100 μM cmpd” value turned out to be 99.5%. Besides, the “% Inhibition of Protein Aggregation, 400 μM cmpd” value under setting [2] came to 96.6%.
For the compound `Cn1cc(C(CNS(=O)(=O)c2ccc3cc[nH]c3c2)N2CCCC2)c2ncccc21` (centres unmarked) [Compound 54, N-(2-(1-methyl-1H-pyrrolo[3,2-b]pyridin-3-yl)-2-(pyrrolidin-1-yl)ethyl)-1H-indole-6-sulfonamide], under setting [1], the inhibition at 25 µM was -41% and the inhibition at 100 µM was 66%.
The like results for `CO[C@@H]1CCN([C@@H](CNS(=O)(=O)c2ccc3cc[nH]c3c2)c2cn(C)c3ccccc23)C1` [Compound 75, N-((R)-2-((R)-3-methoxypyrrolidin-1-yl)-2-(1-methyl-1H-indol-3-yl)ethyl)-1H-indole-6-sulfonamide] were, in that order, -10% and 99.2%.
The like results for `CC(=O)N[C@H]1CCN(C(CNS(=O)(=O)c2ccc3cc[nH]c3c2)c2cn(C)c3ccccc23)C1` (stereo partly drawn) [Compound 35, N-((3S)-1-(2-(1H-indole-6-sulfonamido)-1-(1-methyl-1H-indol-3-yl)ethyl)pyrrolidin-3-yl)acetamide] were, in that order, -19% and 41.7%.
The matching figures for `Cc1cc2cc[nH]c2cc1S(=O)(=O)NCC(c1cn(C)c2ccccc12)N(C)C` (centres unmarked) [Compound 63, N-(2-(dimethylamino)-2-(1-methyl-1H-indol-3-yl)ethyl)-5-methyl-1H-indole-6-sulfonamide]: 25% and 99.2%.
With `Cn1cc(C(CNS(=O)(=O)c2cccc3[nH]ccc23)N2CCCC2)c2ccccc21` (centres unmarked) [Compound 28, N-(2-(1-methyl-1H-indol-3-yl)-2-(pyrrolidin-1-yl)ethyl)-1H-indole-4-sulfonamide], under setting [1], the “% Inhibition of Protein Aggregation, 25 μM cmpd” value came out at 7% and the “% Inhibition of Protein Aggregation, 100 μM cmpd” value is 98.5%.
Consider `Cn1cc([C@@H](CNS(=O)(=O)c2ccc3cc[nH]c3c2)N2CCCC2)c2cccnc21` [Compound 66, (S)-N-(2-(1-methyl-1H-pyrrolo[2,3-b]pyridin-3-yl)-2-(pyrrolidin-1-yl)ethyl)-1H-indole-6-sulfonamide], for which, under setting [1], the inhibition at 25 µM was -10% and the inhibition at 100 µM was determined as 42%.
On to `C[C@@H]1CCCN1[C@H](CNS(=O)(=O)c1ccc2cc[nH]c2c1)c1cn(C)c2ccccc12` [Compound 53, N-((S)-2-(1-methyl-1H-indol-3-yl)-2-((R)-2-methylpyrrolidin-1-yl)ethyl)-1H-indole-6-sulfonamide], for which the IC50 is not above 10 µM. Under setting [1], the inhibition at 25 µM was 99.6% and the inhibition at 100 µM was 99.9%.
The matching figures for `Cn1cc(C(CNS(=O)(=O)c2ccc3cc[nH]c3c2)Nc2ccncc2)c2ccccc21` (centres unmarked) [Compound 49, N-(2-(1-methyl-1H-indol-3-yl)-2-(pyridin-4-ylamino)ethyl)-1H-indole-6-sulfonamide]: 10 to 50 µM, 47% and 99.2%.
In the case of `Cn1cc([C@H](CNS(=O)(=O)c2ccc3cc[nH]c3c2)NCc2cncs2)c2ccccc21` [Compound 85, (R)-N-(2-(1-methyl-1H-indol-3-yl)-2-((thiazol-5-ylmethyl)amino)ethyl)-1H-indole-6-sulfonamide], under setting [1], the inhibition at 25 µM stood at 37% and the inhibition at 100 µM is 84.4%.
Consider `Cn1cc(C(CNS(=O)(=O)c2ccc3cc[nH]c3c2)N2CC[C@@H](F)C2)c2ccccc21` (stereo partly drawn) [Compound 45, N-(2-((R)-3-fluoropyrrolidin-1-yl)-2-(1-methyl-1H-indol-3-yl)ethyl)-1H-indole-6-sulfonamide], for which, under setting [1], the inhibition at 25 µM came to 95% and the inhibition at 100 µM was determined as 69.3%.
